{"source": "PubChem BioAssay AID330", "about": "(DTP/NCI, 2004)", "test_system": "P388 leukemia ip, CD2F1 mice, survival T/C", "experiment": "NCI In Vivo Anticancer Drug Screen. Data for tumor model P388 Leukemia (intraperitoneal) in CD2F1 (CDF1) mice", "conditions": "endpoint: median survival time, higher = longer survival", "how_it_was_run": "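Mice carrying the transplanted tumor received test compound or vehicle. Survival was recorded in each group, and the value is the treated-group measurement divided by that of the vehicle-treated control group.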", "key": {"[1]": {"conditions": "dose: 60.0 mg/kg/injection, schedule: Q01DX005 (ip), vehicle: saline with Tween-80"}, "[2]": {"conditions": "dose: 120.0 mg/kg/injection, schedule: Q01DX005 (ip), vehicle: saline with Tween-80"}, "[3]": {"conditions": "dose: 240.0 mg/kg/injection, schedule: Q01DX005 (ip), vehicle: saline with Tween-80"}, "[4]": {"conditions": "dose: 50.0 mg/kg/injection, schedule: Q01DX005 (ip), vehicle: Klucel (hydroxypropylcellulose) (HPC)"}, "[5]": {"conditions": "dose: 100.0 mg/kg/injection, schedule: Q01DX005 (ip), vehicle: Klucel (hydroxypropylcellulose) (HPC)"}, "[6]": {"conditions": "dose: 200.0 mg/kg/injection, schedule: Q01DX005 (ip), vehicle: Klucel (hydroxypropylcellulose) (HPC)"}, "[7]": {"conditions": "dose: 50.0 mg/kg/injection, schedule: Q01DX005 (ip), vehicle: saline"}, "[8]": {"conditions": "dose: 100.0 mg/kg/injection, schedule: Q01DX005 (ip), vehicle: saline"}}, "note": "“And” between values parts separate entries of the source, which are not always exact repeats. Equal values may be shown once. Inconclusive results and toxic doses are left out."}
{"smiles": "O=[N+]([O-])c1ccc(CN2CCN(c3nccs3)CC2)cc1", "values": [{"measurement": "T/C", "setting": "dose: 50.0 mg/kg/injection, schedule: Q01DX009 (ip), vehicle: Klucel (hydroxypropylcellulose) (HPC)", "value": "101 % of control"}, {"measurement": "T/C", "setting": "dose: 100.0 mg/kg/injection, schedule: Q01DX009 (ip), vehicle: Klucel (hydroxypropylcellulose) (HPC)", "value": "105 % of control"}, {"measurement": "T/C", "setting": "dose: 200.0 mg/kg/injection, schedule: Q01DX009 (ip), vehicle: Klucel (hydroxypropylcellulose) (HPC)", "value": "105 % of control"}]}
{"smiles": "CC(=O)OCc1c(C)[nH]c2ccc(N(C)C)cc2c1=O", "values": [{"measurement": "T/C", "setting": "[1]", "value": "88 % of control"}, {"measurement": "T/C", "setting": "[2]", "value": "103 % of control"}, {"measurement": "T/C", "setting": "[3]", "value": "111 % of control"}]}
{"smiles": "O=S1(=O)C=C(c2ccccc2)S(=O)(=O)C=C1c1ccccc1", "values": [{"measurement": "T/C", "setting": "dose: 100.0 mg/kg/injection, schedule: Q04DX003 (ip), vehicle: saline with Tween-80", "value": "102 % of control"}, {"measurement": "T/C", "setting": "dose: 200.0 mg/kg/injection, schedule: Q04DX003 (ip), vehicle: saline with Tween-80", "value": "96 % of control"}]}
{"smiles": "O=c1c2ccccc2ccn1O", "values": [{"measurement": "T/C", "setting": "[4]", "value": "97 % of control"}, {"measurement": "T/C", "setting": "[5]", "value": "89 % of control"}, {"measurement": "T/C", "setting": "[6]", "value": "89 % of control"}]}
{"smiles": "CCC(C)OC(=Nc1cccc2ccccc12)Nc1cccc2ccccc12", "note": "(stereo not given)", "values": [{"measurement": "T/C", "setting": "[1]", "value": "92 % of control"}, {"measurement": "T/C", "setting": "[2]", "value": "93 % of control"}, {"measurement": "T/C", "setting": "[3]", "value": "93 % of control"}]}
{"smiles": "Cc1cc(NS(=O)(=O)c2ccc(Nc3ccnc4cc(Cl)ccc34)cc2)no1", "values": [{"measurement": "T/C", "setting": "dose: 50.0 mg/kg/injection, schedule: Q01DX005 (ip), vehicle: saline with Tween-80", "value": "92 % of control"}, {"measurement": "T/C", "setting": "dose: 100.0 mg/kg/injection, schedule: Q01DX005 (ip), vehicle: saline with Tween-80", "value": "86 % of control"}, {"measurement": "T/C", "setting": "dose: 200.0 mg/kg/injection, schedule: Q01DX005 (ip), vehicle: saline with Tween-80", "value": "92 % of control"}]}
{"smiles": "Cc1ccc(S(=O)(=O)/N=C2\\CCN(S(=O)(=O)c3ccc(C)cc3)N2S(=O)(=O)c2ccc(C)cc2)cc1", "values": [{"measurement": "T/C", "setting": "[4]", "value": "97 % of control"}, {"measurement": "T/C", "setting": "[5]", "value": "94 % of control"}, {"measurement": "T/C", "setting": "[6]", "value": "97 % of control"}]}
{"smiles": "Nc1nc(N)c(SC(F)(F)F)c(Cl)n1", "values": [{"measurement": "T/C", "setting": "[1]", "value": "100 % of control"}, {"measurement": "T/C", "setting": "[2]", "value": "103 % of control"}]}
{"smiles": "O=C1NC(=O)C(=Cc2ccc(Cl)cc2)C(=O)N1", "values": [{"measurement": "T/C", "setting": "[4]", "value": "114 % of control"}, {"measurement": "T/C", "setting": "[5]", "value": "116 % of control"}]}
{"smiles": "CC12CC3CC(C)(C1)CC(SCCN)(C3)C2", "values": [{"measurement": "T/C", "setting": "[1]", "value": "105 % of control"}, {"measurement": "T/C", "setting": "[2]", "value": "100 % of control"}]}
{"smiles": "OC(c1ccccc1)(C1CCNCC1)C1CC1", "note": "(stereo not given)", "values": [{"measurement": "T/C", "setting": "dose: 12.5 mg/kg/injection, schedule: Q01DX001 (ip), vehicle: saline", "value": "105 % of control"}, {"measurement": "T/C", "setting": "dose: 25.0 mg/kg/injection, schedule: Q01DX001 (ip), vehicle: saline", "value": "101 % of control and 97 % of control"}, {"measurement": "T/C", "setting": "dose: 50.0 mg/kg/injection, schedule: Q01DX001 (ip), vehicle: saline", "value": "103 % of control and 106 % of control"}, {"measurement": "T/C", "setting": "dose: 100.0 mg/kg/injection, schedule: Q01DX001 (ip), vehicle: Klucel (hydroxypropylcellulose) (HPC)", "value": "105 % of control"}, {"measurement": "T/C", "setting": "dose: 100.0 mg/kg/injection, schedule: Q01DX001 (ip), vehicle: saline", "value": "102 % of control"}]}
{"smiles": "COS(=O)(=O)N(C)c1nc(N(C)C)nc(N(C)C)n1", "values": [{"measurement": "T/C", "setting": "[7]", "value": "96 % of control"}, {"measurement": "T/C", "setting": "[8]", "value": "108 % of control"}]}
{"smiles": "CC(=O)CC1(O)CCCC1", "values": [{"measurement": "T/C", "setting": "dose: 60.0 mg/kg/injection, schedule: Q01DX005 (ip), vehicle: saline", "value": "98 % of control"}, {"measurement": "T/C", "setting": "dose: 120.0 mg/kg/injection, schedule: Q01DX005 (ip), vehicle: saline", "value": "105 % of control"}, {"measurement": "T/C", "setting": "dose: 240.0 mg/kg/injection, schedule: Q01DX005 (ip), vehicle: saline", "value": "100 % of control"}]}
{"smiles": "COC(=O)C(CCCCNC(=O)OCc1ccccc1)NC(=O)C(CCCCNC(=O)OCc1ccccc1)NC(=O)OC(C)(C)C", "note": "(stereo not given)", "values": [{"measurement": "T/C", "setting": "dose: 6.25 mg/kg/injection, schedule: Q01DX005 (ip), vehicle: saline with Tween-80", "value": "100 % of control"}, {"measurement": "T/C", "setting": "dose: 12.5 mg/kg/injection, schedule: Q01DX005 (ip), vehicle: saline with Tween-80", "value": "97 % of control"}, {"measurement": "T/C", "setting": "dose: 25.0 mg/kg/injection, schedule: Q01DX005 (ip), vehicle: saline with Tween-80", "value": "97 % of control"}]}
{"smiles": "CSc1nc(NC2OC(COC(C)=O)C(OC(C)=O)C(OC(C)=O)C2OC(C)=O)c(N=C(C)C(C)=O)c(=O)[nH]1", "note": "(stereo not given)", "values": [{"measurement": "T/C", "setting": "[1]", "value": "100 % of control"}, {"measurement": "T/C", "setting": "[2]", "value": "96 % of control"}, {"measurement": "T/C", "setting": "[3]", "value": "86 % of control"}]}
{"smiles": "O=C(NC(C(=O)O)C1CC(Cl)=NO1)OCc1ccc([N+](=O)[O-])cc1", "note": "(stereo not given)", "values": [{"measurement": "T/C", "setting": "dose: 6.2 mg/kg/injection, schedule: Q04DX003 (ip), vehicle: other", "value": "108 % of control"}, {"measurement": "T/C", "setting": "dose: 12.5 mg/kg/injection, schedule: Q04DX003 (ip), vehicle: other", "value": "117 % of control"}]}
{"smiles": "O=C(Nc1cc(Cl)ccc1Cl)/C(Cl)=C1/Sc2ccccc2NC1=O", "values": [{"measurement": "T/C", "setting": "dose: 100.0 mg/kg/injection, schedule: Q01DX001 (ip), vehicle: saline with Tween-80", "value": "108 % of control"}, {"measurement": "T/C", "setting": "dose: 200.0 mg/kg/injection, schedule: Q01DX001 (ip), vehicle: saline with Tween-80", "value": "90 % of control"}, {"measurement": "T/C", "setting": "dose: 400.0 mg/kg/injection, schedule: Q01DX001 (ip), vehicle: saline with Tween-80", "value": "90 % of control"}]}
{"smiles": "O=C(CN1CCNCC1)N1CCOCC1", "values": [{"measurement": "T/C", "setting": "[7]", "value": "100 % of control"}, {"measurement": "T/C", "setting": "[8]", "value": "102 % of control"}, {"measurement": "T/C", "setting": "dose: 200.0 mg/kg/injection, schedule: Q01DX005 (ip), vehicle: saline", "value": "97 % of control"}]}
